Experimental data published in patent US9856290B2, “Glycopeptide compositions and uses thereof” (SUSSEX RESEARCH LABORATORIES INC., priority 2013, dated 2018).
Marks after values point to notes of the source that are not given here. Primed or numbered codes have the meaning given here. Where no end group is shown, it is not given here. The star is where a group is joined. Ac7‑β‑Cel = heptaacetyl-β-cellobioside (peracetylated β-cellobiose), CC(=O)OC[C@H]1O[C@@H](*)[C@H](OC(C)=O)[C@@H](OC(C)=O)[C@@H]1O[C@@H]1O[C@H](COC(C)=O)[C@@H](OC(C)=O)[C@H](OC(C)=O)[C@H]1OC(C)=O; Ac7‑β‑Lac = heptaacetyl-β-lactoside (peracetylated β-lactose), CC(=O)OC[C@H]1O[C@@H](O[C@H]2[C@H](OC(C)=O)[C@@H](OC(C)=O)[C@H](*)O[C@@H]2COC(C)=O)[C@H](OC(C)=O)[C@@H](OC(C)=O)[C@H]1OC(C)=O; Ac4‑β‑Gal = tetraacetyl-β-galactoside (peracetylated β-galactose), CC(=O)OC[C@H]1O[C@@H](*)[C@H](OC(C)=O)[C@@H](OC(C)=O)[C@H]1OC(C)=O; Ac3‑α‑Rha = triacetyl-α-rhamnoside (peracetylated α-rhamnose), CC(=O)O[C@@H]1[C@@H](OC(C)=O)[C@H](C)O[C@@H](*)[C@@H]1OC(C)=O; Ac4‑β‑Glc = per-acetylated β-glucose (tetraacetyl), CC(=O)OC[C@H]1O[C@@H](*)[C@H](OC(C)=O)[C@@H](OC(C)=O)[C@@H]1OC(C)=O; Ac3‑β‑Fuc = triacetyl-β-fucoside (peracetylated β-fucose), CC(=O)O[C@@H]1[C@H](OC(C)=O)[C@H](C)O[C@H](*)[C@H]1OC(C)=O; Ac3‑β‑Xyl = triacetyl-β-xyloside (peracetylated β-xylose), CC(=O)O[C@@H]1[C@@H](OC(C)=O)[C@H](OC(C)=O)CO[C@H]1*; Ac4‑β‑Glc″ = peracetylated beta-glucose, CC(=O)OC[C@H]1O[C@@H](*)[C@H](OC(C)=O)[C@@H](OC(C)=O)[C@@H]1OC(C)=O; β‑maltose = OC[C@H]1O[C@H](O[C@H]2[C@H](O)[C@@H](O)[C@H](*)O[C@@H]2CO)[C@H](O)[C@@H](O)[C@@H]1O; βGlc = OC[C@H]1O[C@@H](*)[C@H](O)[C@@H](O)[C@@H]1O; Palmitoyl = CCCCCCCCCCCCCCCC(=O)*

Tests used:
[1] = system: Human Dermal Fibroblasts (KMST-6); assay: ECM ELISA assay: fibronectin secretion by human dermal fibroblasts; type: cell-based; details: 5 μM, % compared to control set at 100%, normalized to total protein; for Fibronectin secretion at 48 hours: KMST-6, 48 hours; for Fibronectin Secretion at 72 hours: KMST-6, 72 hours
Procedure: (§1) KMST-6 cells (Japan Health Sciences Foundation, JCRB0433) were seeded at 7,000 cells/ml in 12-well tissue culture treated plates (Falcon, 353043) in complete media. The complete media consisted of the following: MEM/EBSS (Hyclone, SH30024.01), 10% Heat-Inactivated FBS (Gibco, 10082-147), 1% L-Glutamine (Hyclone, SH30031.01), 1% Nucleosides (800 mg/L Adenosine, 850 mg/L Guanidine, 730 mg/L Cytidine, 730 mg/L Uridine and 240 mg/L Thymidine), 1% Penicillin/Streptomycin (HyClone, SV30010), 1% Sodium Pyruvate (HyClone, SH30239.01), 1% Non-Essential Amino Acids (Hyclone, SH30238.01) and 0.04% Gentamicin (Gibco, 15710-064). Cells were grown for 2 days prior to treatments. The media was aspirated and cells were washed with 1×PBS (Fisher, SH30256.01) and treated with 5 μM (1 mL/well) glycopeptides, reference (Pal-KTTKS, CPC Scientific, 822197), and control (DMSO, Fisher, BP231-100) in serum-free media supplemented with 50 μg/mL Sodium Ascorbate (Sigma, A4034) and 80 μg/mL β-Aminopropionate Fumarate (Sigma, A3134). The treated cells were incubated at 37° C. and 5% CO2 for 48 and 72 hours. At each timepoint, media from each treatment was collected and centrifuged at 1500 RPM for 15 minutes at 4° C. The supernatant was collected and stored at −80° C. for extracellular matrix protein quantification. The following kits were used for quantification of ECM proteins: Fibronectin (Takara, MK115) and Elastin (Uscn Life Science Inc., E91337Hu). The cells were harvest and lysed with 250 μL Lysis Buffer (20 mM Tris-HCl (Sigma, T1503), 137 mM NaCl (Sigma, S9888), 2 mM EDTA (Fisher, BP118), 1% IGEPAL (Sigma, 18896), 10% Glycerol (Sigma, G5516), 100 μM PMSF (Fisher, 36978) and 10 μg/mL Leupeptin (Sigma-Aldrich, L2884). They were placed on a container of ice on a plate shaker (Lab-Line Instruments, 3595) for 30 minutes. The lysate was centrifuged at 10,000 g for 5 minutes at 4° C. The supernatant was collected and used for protein quantification (BioRad, 500-0112).
(§2) To determine effects on extracellular matrix protein secretion, 5 μM of individual glycopeptides were incubated with Human Dermal Fibroblasts (KMST-6). The control sample cells were treated with DMSO (Fisher, BP231-100). As described previously, supernatant was collected from treated cells (at two time-points, 48 and 72 hours of treatment) and stored at −80° C. for subsequent extracellular matrix protein quantification using ELISA kits (Fibronectin (Takara, MK115), Elastin (Uscn Life Science Inc., E91337Hu). For the determination of total cellular protein, treated cells were harvested and lysed. The lysate was centrifuged, the supernatant was collected and then used for protein quantification (BioRad, 500-0112). ELISA plates were read on the plate reader (Molecular Devices) at absorbance of 450 nm and SoftMax Pro software was used to compute the μg/ml values of protein of interest derived from the generated 4-parameter fit standard curve. Each μg/ml of protein secreted was normalized to total protein per well. The data was analysed by averaging out normalized values from at least three independent experiments and presenting them as a % compared to control treatment set at 100% (Table 2-5). Statistical significance was performed using One-way ANOVA (p<0.05) where “*” represents statistical significance when compared to control and “#” represents statistical significance when compared to reference. […]

[2] = system: Human Dermal Fibroblasts (KMST-6); assay: ECM ELISA assay: elastin secretion by human dermal fibroblasts; type: cell-based; details: 5 μM, % compared to control set at 100%, normalized to total protein; for Elastin Secretion at 48 hours: KMST-6, 48 hours; for Elastin Secretion at 72 hours: KMST-6, 72 hours
Procedure: as §1, §2

Substance | Fibronectin secretion at 48 hours [1] | Fibronectin Secretion at 72 hours [1] [%] | Elastin Secretion at 48 hours [2] [%] | Elastin Secretion at 72 hours [2]
Dal-KT(β-Mal)TKS-OH (KT(β‑maltose)TKS-OH; not fully specified (N-terminus); printed as Dal-KT(β-Mal)TKS-OH; listed as Homo sapiens) [GP003-10] | 144.5% | 94.70 | 149.5 | 127.6%
Pal-KN(Ac4-β-Glc)TKS-OH (Palmitoyl-KN(Ac4‑β‑Glc″)TKS-OH; listed as Homo sapiens) [GP003-5] | 146.0% | 136.0 | 211.4 | 194.2%
Pal-KN(β-Glc)TKS-OH (Palmitoyl-KN(βGlc)TKS-OH; listed as Homo sapiens) [GP003-6] | 140.2% | 119.7 | 170.3 | 128.8%
Pal-KS(Ac4-β-Glc)TKS-OH (Palmitoyl-KS(Ac4‑β‑Glc″)TKS-OH; SMILES CCCCCCCCCCCCCCCC(=O)N[C@@H](CCCCN)C(=O)N[C@@H](CO[C@@H]1O[C@H](COC(C)=O)[C@@H](OC(C)=O)[C@H](OC(C)=O)[C@H]1OC(C)=O)C(=O)N[C@H](C(=O)N[C@@H](CCCCN)C(=O)N[C@@H](CO)C(=O)O)[C@@H](C)O; listed as Homo sapiens) [GP003-3] | 162.0* % | 138.8 | 177.1 | 146.8%
Pal-KT(Ac3-α-Rha)TKS-OH (Palmitoyl-KT(Ac3‑α‑Rha)TKS-OH; SMILES CCCCCCCCCCCCCCCC(=O)N[C@@H](CCCCN)C(=O)N[C@H](C(=O)N[C@H](C(=O)N[C@@H](CCCCN)C(=O)N[C@@H](CO)C(=O)O)[C@@H](C)O)[C@@H](C)O[C@@H]1O[C@@H](C)[C@H](OC(C)=O)[C@@H](OC(C)=O)[C@H]1OC(C)=O; listed as Homo sapiens) [GP004-7] |  |  | 241.0 | 193.0%
Pal-KT(Ac4-β-Gal)TKS-OH (Palmitoyl-KT(Ac4‑β‑Gal)TKS-OH; SMILES CCCCCCCCCCCCCCCC(=O)N[C@@H](CCCCN)C(=O)N[C@H](C(=O)N[C@H](C(=O)N[C@@H](CCCCN)C(=O)N[C@@H](CO)C(=O)O)[C@@H](C)O)[C@@H](C)O[C@@H]1O[C@H](COC(C)=O)[C@H](OC(C)=O)[C@H](OC(C)=O)[C@H]1OC(C)=O; listed as Homo sapiens) [GP004-1] |  |  | 215.3 | 202.0%
Pal-KT(Ac7-β-Cel)TKS-OH (Palmitoyl-KT(Ac7‑β‑Cel)TKS-OH; SMILES CCCCCCCCCCCCCCCC(=O)N[C@@H](CCCCN)C(=O)N[C@H](C(=O)N[C@H](C(=O)N[C@@H](CCCCN)C(=O)N[C@@H](CO)C(=O)O)[C@@H](C)O)[C@@H](C)O[C@@H]1O[C@H](COC(C)=O)[C@@H](O[C@@H]2O[C@H](COC(C)=O)[C@@H](OC(C)=O)[C@H](OC(C)=O)[C@H]2OC(C)=O)[C@H](OC(C)=O)[C@H]1OC(C)=O; listed as Homo sapiens) [GP004-9] |  |  | 199.3 | 254.6* %
Pal-KT(Ac7-β-Lac)TKS-OH (Palmitoyl-KT(Ac7‑β‑Lac)TKS-OH; SMILES CCCCCCCCCCCCCCCC(=O)N[C@@H](CCCCN)C(=O)N[C@H](C(=O)N[C@H](C(=O)N[C@@H](CCCCN)C(=O)N[C@@H](CO)C(=O)O)[C@@H](C)O)[C@@H](C)O[C@@H]1O[C@H](COC(C)=O)[C@@H](O[C@@H]2O[C@H](COC(C)=O)[C@H](OC(C)=O)[C@H](OC(C)=O)[C@H]2OC(C)=O)[C@H](OC(C)=O)[C@H]1OC(C)=O; listed as Homo sapiens) [GP004-5] |  |  | 195.3 | 209.5%
Pal-KTT(Ac4-β-Gal)KS-OH (Palmitoyl-KTT(Ac4‑β‑Gal)KS-OH; SMILES CCCCCCCCCCCCCCCC(=O)N[C@@H](CCCCN)C(=O)N[C@H](C(=O)N[C@H](C(=O)N[C@@H](CCCCN)C(=O)N[C@@H](CO)C(=O)O)[C@@H](C)O[C@@H]1O[C@H](COC(C)=O)[C@H](OC(C)=O)[C@H](OC(C)=O)[C@H]1OC(C)=O)[C@@H](C)O; listed as Homo sapiens) [GP004-2] |  |  | 186.5 | 138.3%
Pal-KTT(Ac4-β-Glc)KS-OH (Palmitoyl-KTT(Ac4‑β‑Glc)KS-OH; SMILES CCCCCCCCCCCCCCCC(=O)N[C@@H](CCCCN)C(=O)N[C@H](C(=O)N[C@H](C(=O)N[C@@H](CCCCN)C(=O)N[C@@H](CO)C(=O)O)[C@@H](C)O[C@@H]1O[C@H](COC(C)=O)[C@@H](OC(C)=O)[C@H](OC(C)=O)[C@H]1OC(C)=O)[C@@H](C)O; listed as Homo sapiens) [GP001-7] | 101.3% | 109.4 |  | 
Pal-KTTKS(Ac3-α-Rha)-OH (Palmitoyl-KTTKS(Ac3‑α‑Rha)-OH; SMILES CCCCCCCCCCCCCCCC(=O)N[C@@H](CCCCN)C(=O)N[C@H](C(=O)N[C@H](C(=O)N[C@@H](CCCCN)C(=O)N[C@@H](CO[C@@H]1O[C@@H](C)[C@H](OC(C)=O)[C@@H](OC(C)=O)[C@H]1OC(C)=O)C(=O)O)[C@@H](C)O)[C@@H](C)O; listed as Homo sapiens) [GP004-8] |  |  | 166.8 | 169.3%
Pal-KTTKS(Ac3-β-Fuc)-OH (Palmitoyl-KTTKS(Ac3‑β‑Fuc)-OH; SMILES CCCCCCCCCCCCCCCC(=O)N[C@@H](CCCCN)C(=O)N[C@H](C(=O)N[C@H](C(=O)N[C@@H](CCCCN)C(=O)N[C@@H](CO[C@H]1O[C@@H](C)[C@@H](OC(C)=O)[C@@H](OC(C)=O)[C@@H]1OC(C)=O)C(=O)O)[C@@H](C)O)[C@@H](C)O; listed as Homo sapiens) [GP004-12] |  |  | 151.4 | 191.8%
Pal-KTTKS(Ac3-β-Xyl)-OH (Palmitoyl-KTTKS(Ac3‑β‑Xyl)-OH; SMILES CCCCCCCCCCCCCCCC(=O)N[C@@H](CCCCN)C(=O)N[C@H](C(=O)N[C@H](C(=O)N[C@@H](CCCCN)C(=O)N[C@@H](CO[C@@H]1OC[C@@H](OC(C)=O)[C@H](OC(C)=O)[C@H]1OC(C)=O)C(=O)O)[C@@H](C)O)[C@@H](C)O; listed as Homo sapiens) [GP004-11] |  |  | 178.8 | 121.3%
Pal-KTTKS(Ac7-β-Cel)-OH (Palmitoyl-KTTKS(Ac7‑β‑Cel)-OH; SMILES CCCCCCCCCCCCCCCC(=O)N[C@@H](CCCCN)C(=O)N[C@H](C(=O)N[C@H](C(=O)N[C@@H](CCCCN)C(=O)N[C@@H](CO[C@@H]1O[C@H](COC(C)=O)[C@@H](O[C@@H]2O[C@H](COC(C)=O)[C@@H](OC(C)=O)[C@H](OC(C)=O)[C@H]2OC(C)=O)[C@H](OC(C)=O)[C@H]1OC(C)=O)C(=O)O)[C@@H](C)O)[C@@H](C)O; listed as Homo sapiens) [GP004-10] |  |  | 211.3 | 187.0%
Pal-KTTKS(Ac7-β-Lac)-OH (Palmitoyl-KTTKS(Ac7‑β‑Lac)-OH; SMILES CCCCCCCCCCCCCCCC(=O)N[C@@H](CCCCN)C(=O)N[C@H](C(=O)N[C@H](C(=O)N[C@@H](CCCCN)C(=O)N[C@@H](CO[C@@H]1O[C@H](COC(C)=O)[C@@H](O[C@@H]2O[C@H](COC(C)=O)[C@H](OC(C)=O)[C@H](OC(C)=O)[C@H]2OC(C)=O)[C@H](OC(C)=O)[C@H]1OC(C)=O)C(=O)O)[C@@H](C)O)[C@@H](C)O; listed as Homo sapiens) [GP004-6] |  |  | 218.6 | 170.0%
